Experimental data taken from patent US20040121307A1, “Early detection of cellular differentiation using optophoresis” (Genoptix, Inc, priority 2002, published 2004).
≈ marks a conversion by molar mass, not a printed value.

Key:
Assay type in all cases: cell-based
U937 cells [1] = assay: Separation of drug treated and untreated leukemia cells, escape velocity; settings: PMA 5 ug/mL, 6 hours
Description: PMA was dissolved in ethanol at a concentration of 5 mg/mL. 3 mls of U937 cells grown in RPMI 1640 media with supplements were removed from the culture flask and 1 ml was placed into each of three eppendorf tubes. Cells from the first tube were pelleted for 4 minutes at 10,000 rpm and resuspended in 250 uL PBS/1% BSA buffer for escape velocity measurements. PMA was added to the remaining two tubes of U937 cells to a final concentration of 5 ug/mL. These tubes were vortexed and placed in a 37° C. water bath for either one hour or six hours. At the end of the time point, the tube was removed, cells were pelleted and then resuspended as described above and escape velocity measurements taken.

U937 cells [2] = assay: Experiment 3: PMA inhibition by bisindolymaleimide, escape velocity; settings: 10 ng/ml PMA only, four hours
From the text: The objective of this experiment was to test the effect of bisindolymaleimide on cells exposed to PMA. Bisindolymaleimide is a Protein Kinase C inhibitor and should block the effect of PMA on U937 cells and their escape velocities. As shown in this and prior experiments, exposure of U937 cells to PMA results in an increase in the escape velocity of the cells. Therefore, it is anticipated that addition of bisindolymaleimide will reduce or eliminate the increase in escape velocity caused by PMA. This has in fact been observed in the data shown below.
Bisindolymaleimide was tested at two concentrations: 200 ng/ml and 50 ng/ml. Samples not treated with bisindolymaleimide received an equivalent amount of the carrier, MeOH, as a control. […] The concentration of PMA tested was 10 ng/ml. Samples not receiving PMA received DMSO.
Once the flasks were prepared, they were incubated at 37° C. 5% CO2 for four hours. At the four hour timepoint, 300 μl of cells were removed from each flask and pelleted at 5000 rpm for 5 minutes. The cells were then resuspended in 6 ml PBS/1% BSA and 60 μl trypan blue.

U937 cells [3] = assay: Experiment 13: quantitative determination of PKC activation, escape velocity dose response; settings: for escape velocity, Average: five hours
Description: Optophoretic analysis was used to develop a full dose response curve for U937 cells treated with PMA. U937 cells were incubated with varying amounts of PMA dissolved in DMSO. The following concentrations of PMA were tested: 0.156 ng/ml, 0.312 ng/ml, 0.625 ng/ml, 1.25 ng/ml, 2.5 ng/ml, 5 ng/ml, and no PMA (control). The cells were incubated with the PMA solutions (or simply DMSO in the case of the control) for five hours. At the end of the incubation period, the cells were centrifuged down for five minutes at 5000 rpm. The supernatent was then removed and the pellet resuspended in 1 ml PBS/1% BSA buffer plus 1:10 trypan blue. The cells were then loaded onto a cover slip containing agarose that was spin-coated onto the surface thereof. Escape velocity measurements were then taken using a 100 mW laser having a beam diameter of 28 pixels. Table 9 reproduced below sets forth the measured escape velocities (μm/sec) for each of the various PMA concentrations.
The method described above may be used to quantitatively determine the level of PKC activation in cells in response to exposure to PKC activating compound using a moving optical gradient. The method includes the steps of first providing a series of cell samples and exposing the series of cell samples to different concentrations of the PKC activating compound. After a period of incubation from about one to several hours, the cells and the optical gradient are moved relative to each other so as to cause displacement of at least some of the cells. Next, the displacement of at least a portion of the displaced cells is measured for each of the different concentrations. […] From the dose response curve, one is able to calculate one or more numerical values that correlate to PKC potency and/or efficacy. For example, the dose response curve can be used to calculate the EC50, Hill slope, or plateau value relative to a standard compound.

U937 cells [4] = assay: Experiment 1: time course dependence of PMA activation, escape velocity
Description: The objective of this experiment is to compare the escape velocities of U937 cells that have been treated with the phorbol ester, phorbol 12 myristate 13-acetate (PMA), to the escape velocity of untreated U937 cells. PMA activates the Protein Kinase C pathway and may cause the cells to go into rapid cell differentiation, which may be indicated by a shift in escape velocity. […] At the end of the activation period, the cells were centrifuged for 4 minutes at 10,000 rpm. The supernatant was then removed and the pellet resuspended in 1 ml PBS/1% BSA buffer. The cells were then centrifuged again and resuspended in buffer. The escape velocity and the cell size of cells from each tube were then calculated.
The time dependent effect of PMA was clearly present as can been seen in the shift of escape velocity to higher speeds over greater time periods.

U937 cells [5] = assay: Experiment 2: time and concentration dependence of PMA, escape velocity; design: escape velocity, Ave.: unit not given here
Description: This experiment was conducted to test the effect of PMA concentration on the escape velocity of U937 cells. PMA concentrations of 10 ng/ml, 1 ng/ml, 100 pg/ml, 10 pg/ml and 1 pg/ml were tested. The control sample received EtOH and not PMA.
The PMA concentration was tested at three timepoints: 1 hour, 3 hours and 5 hours. At each timepoint, 300 μl of cells were removed from each flask. The cells were then spun for 5 minutes at 5000 rpm. The cells were then resuspended in […] PBS/1% BSA and […] of trypan blue.

CCCCCCCCCCCCCC(=O)O[C@@H]1[C@@H](C)[C@@]2(O)[C@@H](C=C(CO)C[C@]3(O)C(=O)C(C)=C[C@@H]23)[C@@H]2C(C)(C)[C@]12OC(C)=O [PMA, phorbol 12 myristate 13-acetate]
escape velocity as compared to the untreated cells (U937 cells [1]): significantly higher escape velocity | average escape velocity (U937 cells [2]): 15.4 μm/sec | escape velocity, Average (U937 cells [3]; 1.25 ng/ml PMA): 17.0 μm/sec | escape velocity, Average (U937 cells [3]; 2.5 ng/ml PMA): 17.0 μm/sec | escape velocity, Average (U937 cells [3]; 5 ng/ml PMA): 17.3 μm/sec | escape velocity, Average (U937 cells [3]; .156 ng/ml PMA): 15.8 μm/sec | escape velocity, Average (U937 cells [3]; .312 ng/ml PMA): 16.0 μm/sec | escape velocity, Average (U937 cells [3]; .625 ng/ml PMA): 16.6 μm/sec | EC50 (U937 cells [3]; Homo sapiens, U-937, 5 h, U937 cells, five hours (FIG. 53), read-out: EC50 value of the PMA dose response curve (escape velocity)): ~0.625 ng/mL (≈ 1.01 nM) | distribution of escape velocities (U937 cells [4]; 0.01 μg/ml PMA, 6 and 9 hours post treatment (FIG. 31)): clear trend toward higher escape velocities over time | escape velocity, Average (U937 cells [4]; 1 hour of PMA activation): 15.3 μm/sec | escape velocity, Average (U937 cells [4]; 6 hours of PMA activation): 28.0 μm/sec | escape velocity, Ave. (U937 cells [5]; 10 pg/ml PMA, 1 Hour Activation): 14.4 | escape velocity, Ave. (U937 cells [5]; 10 pg/ml PMA, 3 Hour Activation): 14.5 | escape velocity, Ave. (U937 cells [5]; 10 pg/ml PMA, 5 Hour Activation): 14.1 | escape velocity, Ave. (U937 cells [5]; 100 pg/ml PMA, 1 Hour Activation): 14.4 | escape velocity, Ave. (U937 cells [5]; 100 pg/ml PMA, 3 Hour Activation): 15.5 | escape velocity, Ave. (U937 cells [5]; 100 pg/ml PMA, 5 Hour Activation): 16.1 | escape velocity, Ave. (U937 cells [5]; 1 ng/ml PMA, 1 Hour Activation): 14.3 | escape velocity, Ave. (U937 cells [5]; 1 ng/ml PMA, 3 Hour Activation): 15.1 | escape velocity, Ave. (U937 cells [5]; 1 ng/ml PMA, 5 Hour Activation): 16.5 | escape velocity, Ave. (U937 cells [5]; 10 ng/ml PMA, 1 Hour Activation): 14.8 | escape velocity, Ave. (U937 cells [5]; 10 ng/ml PMA, 3 Hour Activation): 15.2 | escape velocity, Ave. (U937 cells [5]; 10 ng/ml PMA, 5 Hour Activation): 16.2 | Optophoretic difference versus control (U937 cells [5]; two lowest concentrations, 10 pg/ml and 1 pg/ml PMA): showed no Optophoretic difference
